Assay results from patent US20240342195A1, “AGENT FOR COMBINATION USE COMPRISING T CELL AND/OR B CELL ACTIVITY REGULATOR” (TOKAI UNIVERSITY EDUCATIONAL SYSTEM, priority 2021, published 2024).
“Also recorded” adds a separate entry of the source.

Legend:
A20 = test: proliferating ability of cell line cultured with P4 or COR; format: cell-based, mouse; conditions: cultured 3 days
Description: (§1) Each of human choriocarcinoma cell line JEG-3, BeWo, and embryonic kidney cell line HEK293 was cultured for 10 days at 37° C. in 5% CO2 in a 10% Fetal Calf Serum (FCS)-containing DMEM (Gibuco) to which water-soluble progesterone (P4; water soluble) (Sigma) or cortisol (COR) (Sigma) was added in various concentrations. Each of mouse myeloma cell line P3-X63-Ag8-U1 (P3X) and mouse lymphoma cell line A20 was cultured for 3 days at 37° C. in 5% CO2 in 10% FCS-containing RPMI 1640 to which P4 or COR was added in various concentrations. Proliferation of the cells was evaluated by measuring the number of the cells.

P3-X63-Ag8-U1 (P3X) = test: as above; format: cell-based, mouse; conditions: cultured 3 days
Description: as §1

PBMC-NOG-hIL-4-Tg mouse = test: transplantation of P4/COR-cultured PBMCs to NOG-hIL-4-Tg mouse immunized with CH401MAP; format: in vivo
B cell in PBMCs [1] = test: FCM analysis of PD-1 on B cells of TSST-1-stimulated PBMCs; format: cell-based, human; conditions: TSST-1 and P4/COR stimulation; data not shown
Description: (§2) The PBMCs (final concentration: 1×10^6/mL) were cultured for 3 days at 37° C. in 5% CO2 in 10% FCS-containing RPMI 1640 to which P4 or COR was added in various concentrations with stimulation by 1 μg/mL of toxic shock syndrome toxin-1 (TSST-1). These cells were collected, washed with PBS, and dispensed into a Fisher tube in an amount of 1×10^6 cells/tube. For analysis of a human cell surface marker, a fluorescent-labeled anti-human monoclonal antibody (mAbs) was used. The cells were stained with the mAbs, a reaction was performed for 15 minutes at 4° C., and the resultant was washed with PBS containing 1% (w/v) BSA. Then, the resultant was analyzed by FACS Fortessa, or FACS Verse (BD Bioscience, Franklin Lakes, NJ). In the analysis, a leukocyte gated or lymphocyte gated cells were further gated by expression of human CD45, and then the analysis was performed. A culture supernatant was collected, and 25 μL thereof was dispensed to quantitatively determine cytokine with Legend Plex™ kit from BioLegend.

[2] = tested on: B cell (CD19 gated) in human PBMCs; test: atezolizumab addition experiment, PD-L1/PD-1 expression on B cell by FCM; format: cell-based; conditions: TSST-1, 3 days
Description: (§3) As for an experiment of atezolizumab addition, 0 to 200 μM P4 or COR, 1 μM TSST-1, and 100 μg/mL atezolizumab were added to PBMCs, and the resultant was cultured for 72 hours at 37° C. in 5% CO2, followed by analysis by FCM.

[3] = tested on: Hu-PBMC-NOG (GVHD onset model); test: GVHD onset model: human PBMCs transplanted to NOG mouse, P4 or COR administered subcutaneously; format: in vivo; conditions: 4 weeks
Description: In the analysis using the GVHD model, PBMCs prepared in the same manner as described above were washed with PBS, and 2.5×10^6 PBMCs were intravenously transplanted to each 8- to 9-week-old NOG mouse. […] At the same time as the administration, the weight was measured. After 4 weeks, the mouse was anesthetized to collect heart blood, and euthanized. From various lymphoid organs excised, human cells were prepared, hemolyzed, and then subjected to FCM. Besides, the lung and the liver were excised, and immunohistochemically stained as follows. A tissue of the mouse was immobilized with 20% formalin (Wako Pure Chemical Industries, Ltd.), and embedded in paraffin. The obtained paraffin block was sliced, and the resultant was subjected to deparaffinization, mounted on a slide glass, and stained with hematoxylin and eosin (HE). In immunohistochemical staining with an anti-human CD45 antibody, the slide was subjected to a heat treatment at 97° C. for 20 minutes, and subjected to an endogenous peroxidase treatment through a reaction with 0.3% H2O2/MetOH at room temperature for 10 minutes. Thereafter, the resultant was blocked with 1% goat serum, and anti-human CD45 (Dako) was added thereto, followed by a reaction overnight at 4° C. The resultant slide was washed 3 times with 0.01 M PBS for 5 minutes, and colored with a DAB solution. The resultant was washed with running water for 3 minutes, and stained with hematoxylin, followed by dehydration and penetration/encapsulation.

HEK293 = test: proliferating ability of cell line cultured with P4 or COR; format: cell-based, human; conditions: 200 μM, cultured 10 days
Description: as §1

JEG-3 = test: as above; format: cell-based, human; conditions: 200 μM, cultured 10 days
Description: as §1

BeWo = test: as above; format: cell-based, human; conditions: 200 μM, cultured 10 days
Description: as §1

[4] = tested on: Human peripheral blood mononuclear cells (PBMCs); test: number of cells of TSST-1-stimulated PBMCs cultured with P4 or COR; format: cell-based; conditions: PBMCs + TSST-1; 3 days; high concentration
Description: as §2

[5] = tested on: T cell (CD3 gated) in human PBMCs; test: atezolizumab addition experiment, PD-L1/PD-1 expression on T cell by FCM; format: cell-based; conditions: 0 to 200 μM; TSST-1; 3 days
Description: as §3

B cell in PBMCs [6] = test: restimulation experiment (transient vs continuous P4/COR), PD-L1 on B cells; format: cell-based, human; conditions: TSST-1 3 days
Description: (§4) In a restimulation experiment, PBMCs were cultured for 6 hours at 37° C. in 5% CO2 in 10% FCS-containing RPMI 1640 to which 200 μM P4 or COR was added. These cells were washed, adjusted to a final concentration of 1×10^6/mL, and cultured again in the presence or absence of 200 μM P4 or COR with stimulation by 1 μM TSST-1. After 72 hours, the resultant cells were collected to be analyzed by FCM.

[7] = tested on: CD4 and CD8 T cells in PBMCs; test: restimulation experiment (transient vs continuous P4/COR), PD-1/PD-L1 on T cells; format: cell-based, human; conditions: CD4 and CD8 T cells, TSST-1 3 days
Description: as §4

[8] = tested on: CD4 and CD8 T cells in PBMCs; test: FCM analysis of activation/exhaustion markers (CD25, PD-1) on T cells of TSST-1-stimulated PBMCs; format: cell-based, human; conditions: day 3
Description: as §2

[9] = tested on: Human peripheral blood mononuclear cells (PBMCs); test: cytokine production in PBMCs activated in the presence of P4; format: cell-based; conditions: 0 to 200 μM; PBMCs + TSST-1; 3 days
Description: as §2

[10] = 2 mg/head subcutaneously twice a week

With `CC(=O)[C@H]1CC[C@H]2[C@@H]3CCC4=CC(=O)CC[C@]4(C)[C@H]3CC[C@]12C` [P4, progesterone] the proliferation (A20; 20 μM or less) was “proliferation suppression was not observed”, the proliferation (A20; high concentration of 200 μm) was “proliferation suppression was observed” and the proliferation (P3-X63-Ag8-U1 (P3X); 20 μM or less) was “proliferation suppression was not observed”. For the same compound, the proliferation (P3-X63-Ag8-U1 (P3X); high concentration of 200 μm) was “proliferation suppression was observed”, the “engraftment ability of transplanted PBMCs” value (PBMC-NOG-hIL-4-Tg mouse; PBMCs cultured with 200 μM for 6 hours before transplantation, analysis after 4 weeks) was “equivalent to that of a control group” and the “specific antibody production (CH401MAP)” value (PBMC-NOG-hIL-4-Tg mouse; PBMCs cultured with 200 μM for 6 hours before transplantation, plasma after 4 weeks) was “maintained”. For the same compound, the “expression of CD62L in human cells engrafted into the spleen” value (PBMC-NOG-hIL-4-Tg mouse; treated PBMCs transplanted to NOG-hIL-4-Tg, 4 weeks) was “increased as compared with that in a CTRL mouse”, the “PD-1 expression on B cell” value (B cell in PBMCs [1]) was “not increased” and the “PD-L1 expression in a B cell” value ([2]; 0 to 200 μM) was “showed PD-L1 expression”. For the same compound, the “PD-L1 expression in a B cell” value ([2]; 20 μM) was “high”, the “CD8 T cells” value [3, 10] was “tend to increase” and the GVHD symptoms [3, 10] was “remarkably relieved”. The “number of spleen cells vs control” value [3, 10] was “rather increased”, the “weight loss by GVHD” value [3, 10] was “only slightly caused at an initial stage” and the “lymphocyte infiltration into a peripheral tissue such as the lung” value ([3]; anti-human CD45 immunohistochemical staining, 2 mg/head subcutaneously twice a week) was “tended to be suppressed”. For the same compound, the “CD62L expression in vivo” value ([3]; continuously administered to humanized NOG mouse of GVHD onset model) was “maintained CD62L expression in vivo for a long period of 4 weeks”, the cell proliferating ability (HEK293) was “little proliferated” and the cell proliferating ability (JEG-3) was “little proliferated”. For the same compound, the cell proliferating ability (BeWo) was “little proliferated”, the “proliferation (number of cells)” value [4] was “suppressed” and the “PD-1 expression in a T cell” value [5] was “reduction in PD-1 expression dependent on P4 concentration”. The “PD-L1 expression in a T cell” value [5] was “reduced”, the “PD-L1 expression in B cell” value (B cell in PBMCs [6]; continuous administration, 200 μM) was “suppressed PD-L1 expression” and the “PD-L1 expression in B cell” value (B cell in PBMCs [6]; transient addition (200 μM 6 hours, washed)) was “tended to maintain the expression; also recorded: tended to rather increase PD-L1 expression”. For the same compound, the “ratio of later-phase activated (PD-1/PD-L1-positive) cells” value ([7]; continuously added, 200 μM) was “remarkably reduced”, the “activation (PD-1/PD-L1-positive cells) vs control group” value ([7]; transiently added (200 μM 6 hours, washed)) was “substantially equivalent to or greater than that of a control group” and the “activation marker-negative (non-activated) T cells” value ([8]; 20 to 200 μM) was “increased depending on the P4 concentration”. For the same compound, the “later-phase activated (CD25-positive PD-1-positive) T cells” value ([8]; CD4 and CD8 T cells, 200 μM) was “minimally detected”, the “ratio of later-phase activated (CD25-positive PD-1-positive) T cells” value ([8]; CD4 and CD8 T cells, 20 to 200 μM) was “reduced dependent on the P4 concentration” and the “cytokine production in culture supernatant (10 cytokines of FIG. 4)” value [9] was “suppression of cytokine production was observed depending on the P4 concentration”.
